The test addresses T1, human M2 receptor (Homo sapiens, UniProt P08172).
T1 sequence (P08172 1-466): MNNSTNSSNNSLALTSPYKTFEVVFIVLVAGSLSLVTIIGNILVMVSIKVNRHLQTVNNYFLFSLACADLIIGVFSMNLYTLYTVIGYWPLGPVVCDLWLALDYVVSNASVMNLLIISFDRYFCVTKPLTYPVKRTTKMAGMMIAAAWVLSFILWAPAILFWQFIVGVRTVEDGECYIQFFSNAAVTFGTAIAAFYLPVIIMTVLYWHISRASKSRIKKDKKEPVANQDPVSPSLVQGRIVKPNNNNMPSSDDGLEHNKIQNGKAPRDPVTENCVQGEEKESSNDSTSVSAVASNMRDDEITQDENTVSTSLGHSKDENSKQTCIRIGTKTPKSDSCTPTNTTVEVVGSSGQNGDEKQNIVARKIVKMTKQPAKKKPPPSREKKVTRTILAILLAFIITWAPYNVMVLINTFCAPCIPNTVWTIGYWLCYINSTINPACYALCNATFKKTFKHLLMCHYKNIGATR
Briefly: Functional M2-GIRK1/4 activation test: allosteric potency (EC50) and efficiency. Particulars: for EC50: Receptor activity EC50, CHO-DUKX-M2-GIRK cells, acetylcholine at EC20, in some cases mean of two or more determinations; for Emax: read-out: Efficiency, boosting of the acetylcholine effect at EC20 acetylcholine concentration; for Emax / Efficiency: CHO-DUKX-M2-GIRK cells; for Efficiency: boosting of the acetylcholine effect at EC20 acetylcholine concentration.

By EC50 is commonly meant the concentration needed to bring the measured effect to its halfway point. High values mean a less potent agent, low ones a more potent agent. In the case of `CCC(NC(=O)c1cn(-c2ncc(F)cc2F)c2nc(N3C[C@@H](O)[C@H](O)C3)ccc2c1=O)C(F)(F)C(F)(F)F` (mixture of isomers) [Example 95, 1-(3,5-Difluoropyridin-2-yl)-7-[(3R,4R)-3,4-dihydroxypyrrolidin-1-yl]-4-oxo-N-[1,1,1,2,2-pentafluoropentan-3-yl]-1,4-dihydro-1,8-naphthyridine-3-carboxamide], the EC50 came out at 0.026 µM and the Emax turned out to be 100%.
With `CC1C(=O)N(c2ccc3c(=O)c(C(=O)N[C@@H](C4CC4)C(F)(F)F)cn(-c4ncc(F)cc4F)c3n2)CC1O` (mixture of isomers) [Example 104, N-[(1S)-1-Cyclopropyl-2,2,2-trifluoroethyl]-1-(3,5-difluoropyridin-2-yl)-7-[4-hydroxy-3-methyl-2-oxopyrrolidin-1-yl]-4-oxo-1,4-dihydro-1,8-naphthyridine-3-carboxamide], a half-maximal effect (EC50) was put at 0.25 µM and the Emax turned out to be 98.5%.
Turning to `CC[C@H](NC(=O)c1cn(-c2ncc(F)cc2F)c2nc(N3CC(O)C(C)C3=O)ccc2c1=O)C(F)(F)F` (mixture of isomers) [Example 108, 1-(3,5-Difluoropyridin-2-yl)-7-[4-hydroxy-3-methyl-2-oxopyrrolidin-1-yl]-4-oxo-N-[(2S)-1,1,1-trifluorobutan-2-yl]-1,4-dihydro-1,8-naphthyridine-3-carboxamide], a half-maximal response (EC50) required 0.185 µM and the Emax amounted to 84%.
Regarding `CC1C(=O)N(c2ccc3c(=O)c(C(=O)N[C@@H](C)C(F)(F)F)cn(-c4ncc(F)cc4F)c3n2)CC1O` (mixture of isomers) [Example 112, 1-(3,5-Difluoropyridin-2-yl)-7-[4-hydroxy-3-methyl-2-oxopyrrolidin-1-yl]-4-oxo-N-[(2S)-1,1,1-trifluoropropan-2-yl]-1,4-dihydro-1,8-naphthyridine-3-carboxamide], the EC50 is 0.525 µM and the Emax was 98%.
For `CC[C@@H](NC(=O)c1cn(-c2ncc(F)cc2F)c2nc(N3CCCC(O)C3)ccc2c1=O)C(F)(F)F` (mixture of isomers) [Example 117, 1-(3,5-Difluoropyridin-2-yl)-7-[3-hydroxypiperidin-1-yl]-4-oxo-N-[(2R)-1,1,1-trifluorobutan-2-yl]-1,4-dihydro-1,8-naphthyridine-3-carboxamide], it took 0.4 µM to reach a half-maximal effect (EC50) and the Emax came out at 94.5%.
For `CC[C@@H](NC(=O)c1cn(-c2ncccc2F)c2nc(N3CC4CC4(O)C3)ccc2c1=O)C(F)(F)F` (mixture of isomers) [Example 134, 1-(3-Fluoropyridin-2-yl)-7-[1-hydroxy-3-azabicyclo[3.1.0]hex-3-yl]-4-oxo-N-[(2R)-1,1,1-trifluorobutan-2-yl]-1,4-dihydro-1,8-naphthyridine-3-carboxamide], in that order: 0.105 µM and 100%.
In the same order, the values of `O=C(N[C@H](C1CC1)C(F)(F)F)c1cn(-c2ncccc2F)c2nc(N3CC4CC4(O)C3)ccc2c1=O` (mixture of isomers) [Example 135, N-[(1R)-1-Cyclopropyl-2,2,2-trifluoroethyl]-1-(3-fluoropyridin-2-yl)-7-[(1S)-1-hydroxy-3-azabicyclo[3.1.0]hex-3-yl]-4-oxo-1,4-dihydro-1,8-naphthyridine-3-carboxamide] are 0.097 µM and 100%.
For `O=C(NC(c1ccccc1Cl)C(F)(F)F)c1cn(-c2ncc(F)cc2F)c2nc(N3CCNC3=O)ccc2c1=O` (racemic) [Example 147, N-[1-(2-Chlorophenyl)-2,2,2-trifluoroethyl]-1-(3,5-difluoropyridin-2-yl)-4-oxo-7-(2-oxoimidazolidin-1-yl)-1,4-dihydro-1,8-naphthyridine-3-carboxamide], in that order: 0.055 µM and 98.5%.
With `CC(NC(=O)c1cn(-c2ncc(F)cc2F)c2nc(N3CCNC3=O)ccc2c1=O)C(F)(F)C(F)(F)F` (racemic) [Example 161, 1-(3,5-Difluoropyridin-2-yl)-4-oxo-7-(2-oxoimidazolidin-1-yl)-N-[3,3,4,4,4-pentafluorobutan-2-yl]-1,4-dihydro-1,8-naphthyridine-3-carboxamide], the EC50 was determined as 0.07 µM and the Emax worked out at 100%.
In the same order, the values of `CCC(NC(=O)c1cn(-c2ncc(F)cc2F)c2nc(N3CCNC3=O)ccc2c1=O)C(F)(F)C(F)(F)F` (racemic) [Example 164, 1-(3,5-Difluoropyridin-2-yl)-4-oxo-7-(2-oxoimidazolidin-1-yl)-N-[1,1,1,2,2-pentafluoropentan-3-yl]-1,4-dihydro-1,8-naphthyridine-3-carboxamide] are 0.014 µM and 100%.
For `CC(C)C(NC(=O)c1cn(-c2ncc(F)cc2F)c2nc(N3CCNC3=O)ccc2c1=O)C(F)(F)F` (racemic) [Example 169, 1-(3,5-Difluoropyridin-2-yl)-4-oxo-7-(2-oxoimidazolidin-1-yl)-N-[1,1,1-trifluoro-3-methylbutan-2-yl]-1,4-dihydro-1,8-naphthyridine-3-carboxamide], in that order: 0.12 µM and 97.5%.
In the same order, the values of `O=C(NC(c1ccccc1Cl)C(F)(F)F)c1cn(-c2ncc(F)cc2F)c2nc(N3C[C@@H](O)CC3=O)ccc2c1=O` (single isomer, unassigned) [Example 6] are 0.014 µM and 95%.
As to `O=C(NC(c1ccc(F)cc1)C(F)(F)F)c1cn(-c2ncc(F)cc2F)c2nc(N3C[C@@H](O)CC3=O)ccc2c1=O` (single isomer, unassigned) [Example 12], the concentration giving a half-maximal response (EC50) is 0.055 µM and the Emax was determined as 100%.
On to `O=C(NC(c1ccc(F)cc1)C(F)(F)F)c1cn(-c2ncc(F)cc2F)c2nc(N3C[C@@H](O)CC3=O)ccc2c1=O` (single isomer, unassigned) [Example 13], for which the EC50 was 0.13 µM and the Efficiency was found to be 99.50%.
For `CC1CC(=O)N(c2ccc3c(=O)c(C(=O)N[C@H](C4CC4)C(F)(F)F)cn(-c4ncc(F)cc4F)c3n2)C1` (single isomer, unassigned) [Example 29], in that order: 0.059 µM and 98.00%.
In the case of `O=C(N[C@H](C1CC1)C(F)(F)F)c1cn(-c2ncc(F)cc2F)c2nc(N3CC4CC4(O)C3)ccc2c1=O` (single isomer, unassigned) [Example 38], it took 0.018 µM to reach a half-maximal effect (EC50) and the Emax was determined as 98%.
Consider `O=C(N[C@H](C1CC1)C(F)(F)F)c1cn(-c2ncc(F)cc2F)c2nc(N3CC4CC4(O)C3)ccc2c1=O` (single isomer, unassigned) [Example 39], for which the response was half-maximal at 0.051 µM (EC50) and the Efficiency turned out to be 99.00%.
With `CC[C@@H](NC(=O)c1cn(-c2ncc(F)cc2F)c2nc(N3CC4CC4(O)C3)ccc2c1=O)C(F)(F)F` (single isomer, unassigned) [Example 44], the midpoint of the response, the EC50, lay at 0.031 µM and the Emax was 98.5%.
For the molecule `CC[C@@H](NC(=O)c1cn(-c2ncc(F)cc2F)c2nc(N3CC4CC4(O)C3)ccc2c1=O)C(F)(F)F` (single isomer, unassigned) [Example 45], a half-maximal effect (EC50) was put at 0.057 µM and the Efficiency came to 96.00%.
Consider `O=C(NC(C(F)(F)F)C(F)(F)F)c1cn(-c2ncc(F)cc2F)c2nc(N3CC4CC4(O)C3)ccc2c1=O` (single isomer, unassigned) [Example 58, 1-(3,5-Difluoropyridin-2-yl)-N-(1,1,1,3,3,3-hexafluoropropan-2-yl)-7-[1-hydroxy-3-azabicyclo[3.1.0]hex-3-yl]-4-oxo-1,4-dihydro-1,8-naphthyridine-3-carboxamide], for which a half-maximal response (EC50) required 0.011 µM and the Emax is 96%.
The molecule `O=C(NC(C(F)(F)F)C(F)(F)F)c1cn(-c2ncc(F)cc2F)c2nc(N3CC4CC4(O)C3)ccc2c1=O` (single isomer, unassigned) [Example 59, 1-(3,5-Difluoropyridin-2-yl)-N-(1,1,1,3,3,3-hexafluoropropan-2-yl)-7-[1-hydroxy-3-azabicyclo[3.1.0]hex-3-yl]-4-oxo-1,4-dihydro-1,8-naphthyridine-3-carboxamide] returned a concentration for a half-maximal effect (EC50) of 0.023 µM and an Efficiency of 99.00%.
Regarding `CC(NC(=O)c1cn(-c2ncc(F)cc2F)c2nc(N3C[C@@H](O)CC3=O)ccc2c1=O)C(F)(F)C(F)(F)F` (single isomer, unassigned) [Example 77], the concentration giving a half-maximal response (EC50) was 0.26 µM and the Emax was determined as 100%.
Regarding `CC(NC(=O)c1cn(-c2ncc(F)cc2F)c2nc(N3C[C@@H](O)CC3=O)ccc2c1=O)C(F)(F)C(F)(F)F` (single isomer, unassigned) [Example 78], a half-maximal effect (EC50) was put at 0.044 µM and the Efficiency was 91.50%.
In the same order, the values of `O=C(NC(c1ccccc1Cl)C(F)(F)F)c1cn(-c2ncc(F)cc2F)c2nc(N3C[C@@H](O)[C@H](O)C3)ccc2c1=O` (single isomer, unassigned) [Example 85] are 0.085 µM and 99.00%.
Turning to `CC(NC(=O)c1cn(-c2ncc(F)cc2F)c2nc(N3C[C@@H](O)[C@H](O)C3)ccc2c1=O)C(F)(F)C(F)(F)F` (single isomer, unassigned) [Example 89], the EC50 came out at 0.275 µM and the Emax was 98%.
In turn, `CCC(NC(=O)c1cn(-c2ncc(F)cc2F)c2nc(N3C[C@@H](O)CC3=O)ccc2c1=O)C(F)(F)C(F)(F)F` (single isomer, unassigned) [Example 94] had an EC50 of 0.032 µM and an Efficiency of 100.00%.

For the origin of these results see US10519154B2, “7-substituted 1-pyridyl-naphthyridine-3-carboxylic acid amides and use thereof” (Bayer Pharma Aktiengesellschaft, priority 2016, dated 2019).
